# Data: patent publication US20230322788A1, “IMIDAZOTRIAZINE AND PYRROLOPYRIMIDINE DERIVATIVES AS KRAS G12C INHIBITORS” (BeiGene, Ltd., priority 2020, published 2023)
# Molecular target: KRAS (aa 1-169) G12C, C51S, C80L, C118S (Homo sapiens (Human), UniProt P01116, C118S/C51S/C80L/G12C)
# Assay: KRAS G12C SOS1-mediated nucleotide exchange / cRaf RBD binding FRET assay (Biochemical Functional Assay)
# Conditions: GDP-loaded KRAS G12C pre-incubated with compound at 24° C. for 3 hrs; SOS1, GTPγS, GST-cRaf RBD; inhibition of nucleotide exchange
# Method: The KRAS ([…]) G12C, C51S, C80L, C118S with a His-tag was expressed, purified and loaded with GDP in house. All protein and substrate solutions were prepared in assay buffer containing 25 mM HEPES pH7.5, 10 mM MgCl2, and 0.01% Triton X-100. Purified GDP-loaded KRAS (aa 1-169) G12C, C51S, C80L, C118S protein was pre-incubated with a serially diluted compound at 24° C. for 3 hrs. Purified SOS1 (aa 564-1049) protein, GTPYS (Sigma) and GST-cRaf RBD (aa 1-149) were then added to each well and incubated at 24° C. for additional 3 hrs. […] Following the incubation, Mab Anti-6HIS-Tb cryptate (Cisbio) and Mab Anti GST-XL665 (Cisbio) were added and further incubated at 24° C. for 3 hrs. The binding interaction between active GTPγS KRAS G12C and GST-cRaf RBD brings the Tb and XL665 into close proximity enabling an increased FRET signal (Ex337 nm, Em665 nm/620 nm). The inhibition percentage of nucleotide exchange reaction in presence of increasing concentrations of compounds was calculated based on the ratio of fluorescence at 665 nm to that at 620 nm detected on a BMG PHERAstar FSX instrument. The IC50 value of each compound was calculated from fitting the data to the four-parameter logistic model by Dotmatics.
# Chain of KRAS (aa 1-169) G12C, C51S, C80L, C118S (P01116 other isoform, or with tags, fused parts or gaps G12C/C51S/C80L/C118S): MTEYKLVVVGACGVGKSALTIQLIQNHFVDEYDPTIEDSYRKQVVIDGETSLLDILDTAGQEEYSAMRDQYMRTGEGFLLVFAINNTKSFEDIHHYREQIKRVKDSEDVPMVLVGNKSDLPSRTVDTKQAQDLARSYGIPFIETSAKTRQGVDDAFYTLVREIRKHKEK
row,Structure (SMILES),IC50
1,"C=CC(=O)N1CCN(c2nc(OC[C@@H]3CCCN3C)nc3c(Cc4c(C(F)(F)F)ccc5[nH]ncc45)c[nH]c23)C[C@@H]1CC#N [Compound B5, 2-((S)-1-acryloyl-4-(2-(((S)-1-methylpyrrolidin-2-yl)methoxy)-7-((5-(trifluoromethyl)-1H-indazol-4-yl)methyl)-5H-pyrrolo[3,2-d]pyrimidin-4-yl)piperazin-2-yl)acetonitrile]",0.0641 µM
2,"C=CC(=O)N1CCN(c2nc(OC[C@@H]3CCCN3C)nn3c(Cc4cc(O)cc5ccccc45)cnc23)CC1 [Compound A2, (S)-1-(4-(7-((3-hydroxynaphthalen-1-yl)methyl)-2-((1-methylpyrrolidin-2-yl)methoxy)imidazo[2,1-f][1,2,4]triazin-4-yl)piperazin-1-yl)prop-2-en-1-one]",0.427 µM
3,"C=CC(=O)N1CCN(c2nc(OC[C@@H]3CCCN3C)nn3c(Cc4cc(O)cc5ccccc45)cnc23)C[C@@H]1CC#N [Compound A5, 2-((S)-1-acryloyl-4-(7-((3-hydroxynaphthalen-1-yl)methyl)-2-(((S)-1-methylpyrrolidin-2-yl)methoxy)imidazo[2,1-f][1,2,4]triazin-4-yl)piperazin-2-yl)acetonitrile]",0.029 µM
4,"C=CC(=O)N1CCN(c2nc(OC[C@@H]3CCCN3C)nc3c(Cc4cc(O)cc5ccccc45)cn(C)c23)CC1 [Compound B4, (S)-1-(4-(7-((3-hydroxynaphthalen-1-yl)methyl)-5-methyl-2-((1-methylpyrrolidin-2-yl)methoxy)-5H-pyrrolo[3,2-d]pyrimidin-4-yl)piperazin-1-yl)prop-2-en-1-one]",0.329 µM
5,"C=CC(=O)N1CCN(c2nc(OC[C@@H]3CC(F)(F)CN3C)nn3c(Cc4cccc5ccccc45)cnc23)C[C@@H]1CC#N [Compound A14, 2-((S)-1-acryloyl-4-(2-(((S)-4,4-difluoro-1-methylpyrrolidin-2-yl)methoxy)-7-(naphthalen-1-ylmethyl)imidazo[2,1-f][1,2,4]triazin-4-yl)piperazin-2-yl)acetonitrile]",0.506 µM
6,"C=CC(=O)N1CCN(c2nc(OC[C@@H]3CCCN3C)nc3c(Cc4cc(O)cc5ccccc45)cn(CC)c23)C[C@@H]1CC#N [Compound B2, 2-((S)-1-acryloyl-4-(5-ethyl-7-((3-hydroxynaphthalen-1-yl)methyl)-2-(((S)-1-methylpyrrolidin-2-yl)methoxy)-5H-pyrrolo[3,2-d]pyrimidin-4-yl)piperazin-2-yl)acetonitrile]",0.013 µM

# Same assay, conditions: same assay; the cell prints uM although the column head says nmol
row,Structure (SMILES),IC50
1,"C=CC(=O)N1CCN(c2nc(OC[C@@H]3CCCN3C)nn3c(Cc4cccc5[nH]ncc45)cnc23)C[C@@H]1CC(N)=O [Compound A16, 2-((S)-4-(7-((1H-indazol-4-yl)methyl)-2-(((S)-1-methylpyrrolidin-2-yl)methoxy)imidazo[2,1-f][1,2,4]triazin-4-yl)-1-acryloylpiperazin-2-yl)acetamide]",> 10 µM
